For data set [1], the target named is Aldo-keto reductase family 1 member B1 (Rattus norvegicus, UniProt P07943). The format is tissue-based, Lens of camera-type eye.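 Further: inhibition of aldose reductase enzyme activity, measured with DL-glyceraldehyde as the substrate; in other assays of this panel Not Active means under 50% inhibition at 10 µM.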
The target of data set [2] is T1, B2 bradykinin receptor (Homo sapiens, UniProt P30411). Further: in other assays of this panel Not Active means under 50% inhibition at 10 µM.
T1 sequence (P30411 whole entry): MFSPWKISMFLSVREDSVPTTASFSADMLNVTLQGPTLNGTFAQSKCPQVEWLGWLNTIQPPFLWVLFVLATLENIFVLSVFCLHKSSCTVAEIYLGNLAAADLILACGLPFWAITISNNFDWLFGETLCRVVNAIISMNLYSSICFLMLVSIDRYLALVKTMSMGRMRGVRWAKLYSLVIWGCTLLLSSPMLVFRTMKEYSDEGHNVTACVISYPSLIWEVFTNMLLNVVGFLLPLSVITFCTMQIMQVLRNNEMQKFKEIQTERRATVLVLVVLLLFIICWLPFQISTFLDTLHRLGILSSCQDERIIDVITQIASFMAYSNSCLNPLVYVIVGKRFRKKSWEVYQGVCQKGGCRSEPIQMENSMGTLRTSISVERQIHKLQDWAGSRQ
The format is cell membranes, Membrane. As to conditions: chem-1.

A short description of data set [3]: DRUGMATRIX: Serotonin (5-Hydroxytryptamine) 5-HT3 radioligand binding (ligand: [3H] GR-65630). The format is cell membranes, Membrane. As to conditions: hek293; Not Active = under 50% inhibition at 10 µM.
Data set [4] is described as follows: DRUGMATRIX: Sigma2 radioligand binding (ligand: [3H] Ifenprodil). The format is cell membranes, Rattus norvegicus, Wistar, Brain, Membrane. The following applies: Not Active = under 50% inhibition at 10 µM.
Data set [5] has as its target Vascular endothelial growth factor receptor 1 (Homo sapiens, UniProt P17948). Briefly: biochemical. The format is cell-based, HUVEC. The following applies: huvec. Further: in other assays of this panel Not Active means under 50% inhibition at 10 µM.
Data set [6] can be described thus: DRUGMATRIX: Purinergic P2X radioligand binding (ligand: [3H] alpha, beta-Methylene-ATP). The format is cell membranes, Oryctolagus cuniculus, New Zealand albino, Urinary bladder, Membrane. The following applies: Not Active = under 50% inhibition at 10 µM.
Data set [7] concerns the target Cytochrome P450 2C19 (Homo sapiens, UniProt P33261). The following applies: bti-tn-5b1-4. Further: in other assays of this panel Not Active means under 50% inhibition at 10 µM.

Sequence of Vascular endothelial growth factor receptor 1 (P17948 whole entry): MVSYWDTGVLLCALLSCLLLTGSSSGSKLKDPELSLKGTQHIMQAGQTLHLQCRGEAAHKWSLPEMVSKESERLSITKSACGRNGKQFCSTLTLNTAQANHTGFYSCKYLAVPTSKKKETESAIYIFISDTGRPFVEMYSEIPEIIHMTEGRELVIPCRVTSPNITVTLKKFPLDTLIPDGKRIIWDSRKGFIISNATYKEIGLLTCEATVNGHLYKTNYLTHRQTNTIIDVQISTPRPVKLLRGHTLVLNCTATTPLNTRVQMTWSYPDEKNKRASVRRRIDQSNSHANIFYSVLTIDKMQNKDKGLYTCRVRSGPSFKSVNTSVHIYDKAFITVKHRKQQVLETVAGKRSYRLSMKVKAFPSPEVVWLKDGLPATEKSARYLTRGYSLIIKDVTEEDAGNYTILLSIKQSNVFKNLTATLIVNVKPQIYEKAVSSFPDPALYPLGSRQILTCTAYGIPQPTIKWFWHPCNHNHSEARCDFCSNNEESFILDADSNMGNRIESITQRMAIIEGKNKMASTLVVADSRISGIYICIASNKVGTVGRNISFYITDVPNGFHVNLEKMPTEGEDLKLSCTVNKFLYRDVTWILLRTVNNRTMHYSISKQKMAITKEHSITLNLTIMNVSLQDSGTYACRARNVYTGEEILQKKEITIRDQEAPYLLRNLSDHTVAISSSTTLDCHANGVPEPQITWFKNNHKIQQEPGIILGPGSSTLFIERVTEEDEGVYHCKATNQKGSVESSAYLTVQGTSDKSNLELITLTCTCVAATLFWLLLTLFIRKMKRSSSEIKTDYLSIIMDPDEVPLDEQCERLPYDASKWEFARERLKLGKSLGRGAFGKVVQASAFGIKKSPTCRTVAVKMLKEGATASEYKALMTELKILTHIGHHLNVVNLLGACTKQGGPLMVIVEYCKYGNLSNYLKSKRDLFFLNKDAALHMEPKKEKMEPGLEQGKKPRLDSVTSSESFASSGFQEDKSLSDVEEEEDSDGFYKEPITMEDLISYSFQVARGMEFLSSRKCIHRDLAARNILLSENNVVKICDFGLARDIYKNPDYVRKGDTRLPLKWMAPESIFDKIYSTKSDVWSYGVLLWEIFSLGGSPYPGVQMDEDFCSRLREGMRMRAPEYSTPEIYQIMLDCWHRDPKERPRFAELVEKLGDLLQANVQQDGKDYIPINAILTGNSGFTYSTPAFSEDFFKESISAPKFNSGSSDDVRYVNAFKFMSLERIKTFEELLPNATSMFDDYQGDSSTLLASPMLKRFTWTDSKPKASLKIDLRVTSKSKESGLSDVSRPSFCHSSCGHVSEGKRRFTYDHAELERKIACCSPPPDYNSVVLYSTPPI
Sequence of Cytochrome P450 2C19 (P33261 whole entry): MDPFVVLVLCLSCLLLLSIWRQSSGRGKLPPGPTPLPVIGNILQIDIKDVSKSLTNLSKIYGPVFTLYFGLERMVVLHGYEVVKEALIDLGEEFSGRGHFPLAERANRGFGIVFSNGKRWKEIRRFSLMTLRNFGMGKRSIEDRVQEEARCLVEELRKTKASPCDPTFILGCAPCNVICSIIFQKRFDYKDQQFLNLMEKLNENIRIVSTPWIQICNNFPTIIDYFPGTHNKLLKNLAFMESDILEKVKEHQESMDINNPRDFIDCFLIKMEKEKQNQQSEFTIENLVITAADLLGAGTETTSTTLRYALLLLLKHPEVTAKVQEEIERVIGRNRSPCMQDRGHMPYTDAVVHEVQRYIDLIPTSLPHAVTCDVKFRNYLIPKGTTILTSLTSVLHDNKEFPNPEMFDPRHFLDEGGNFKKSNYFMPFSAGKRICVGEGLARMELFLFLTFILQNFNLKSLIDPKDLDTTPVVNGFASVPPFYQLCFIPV

A word on the IC50: it is the concentration at which inhibition is half-maximal. As a reminder, the Ki is a dissociation constant, usually derived from enzyme kinetics or from competition with a known ligand. In the case of `COc1ccc(C2C(=O)c3ccccc3C2=O)cc1` [ANISINDIONE], the IC50 entry in data set [1], in data set [2], in data set [3], in data set [4], in data set [5] and in data set [6] was “Not Active” each time. For the same molecule, the IC50 result in data set [7] is on record as “Not Active”. In addition, the Ki entry in data set [3], in data set [4], in data set [6] and in data set [7] was “Not Active” in each case.
`CC[C@H](C)[C@H]1O[C@]2(C=C[C@@H]1C)C[C@@H]1C[C@@H](C/C=C(\C)[C@@H](O[C@H]3C[C@H](OC)[C@@H](O[C@H]4C[C@H](OC)[C@@H](O)[C@H](C)O4)[C@H](C)O3)[C@@H](C)/C=C/C=C3\CO[C@@H]4[C@H](O)C(C)=C[C@@H](C(=O)O1)[C@]34O)O2.CO[C@H]1C[C@H](O[C@H]2[C@H](C)O[C@@H](O[C@@H]3/C(C)=C/C[C@@H]4C[C@@H](C[C@]5(C=C[C@H](C)[C@@H](C(C)C)O5)O4)OC(=O)[C@@H]4C=C(C)[C@@H](O)[C@H]5OC/C(=C\C=C\[C@@H]3C)[C@]54O)C[C@@H]2OC)O[C@@H](C)[C@@H]1O` [ABAMECTIN]: the half-maximal inhibitory concentration (IC50) result in data set [1], in data set [2], in data set [3], in data set [4], in data set [5] and in data set [6] was “Not Active” each time. Besides, the IC50 result in data set [7] is “Not Active”. The Ki entry in data set [3], in data set [4], in data set [6] and in data set [7] was “Not Active” each time.
Turning to `CN/C(=N\CCSCc1nc[nH]c1C)NC#N` [CIMETIDINE], the IC50 result in data set [1], in data set [2], in data set [3], in data set [4], in data set [5] and in data set [6] was “Not Active” in each case. Besides, the half-maximal inhibitory concentration (IC50) result in data set [7] is “Not Active”. Further, the Ki entry in data set [3], in data set [4], in data set [6] and in data set [7] was “Not Active” throughout.
For NYSTATIN, the IC50 result in data set [1], in data set [2], in data set [3], in data set [4], in data set [5] and in data set [6] was “Not Active” each time. In addition, in data set [7], the IC50 result is “Not Active”. In addition, the Ki entry in data set [1], in data set [2], in data set [3], in data set [4], in data set [5] and in data set [6] was “Not Active” each time. Further, in data set [7], the Ki entry was “Not Active”.
With `COC(=O)Nc1nc2ccc([S+]([O-])c3ccccc3)cc2[nH]1` (centres undefined) [OXFENDAZOLE], the IC50 result in data set [1], in data set [2], in data set [3], in data set [4], in data set [5] and in data set [6] was “Not Active” throughout. Moreover, in data set [7], the IC50 result is reported as “Not Active”. For the same molecule, the Ki result in data set [3], in data set [4], in data set [6] and in data set [7] was “Not Active” each time.
Consider `CCC1(C)CC(=O)NC1=O` (centres undefined) [ETHOSUXIMIDE], for which the 50% inhibitory concentration (IC50) result in data set [1], in data set [2], in data set [3], in data set [4], in data set [5] and in data set [6] was “Not Active” each time. Besides, the IC50 entry in data set [7] is recorded as “Not Active”. The Ki result in data set [3], in data set [4], in data set [6] and in data set [7] was “Not Active” each time.
In the case of `Brc1c(NC2=NCCN2)ccc2nccnc12` [BRIMONIDINE], the IC50 result in data set [1], in data set [2], in data set [3], in data set [4], in data set [5] and in data set [6] was “Not Active” in each case. In addition, the IC50 entry in data set [7] is listed as “Not Active”. Also, the Ki result in data set [3], in data set [4], in data set [6] and in data set [7] was “Not Active” each time.
For `COC(=O)CCc1ccc(OCC(O)CNC(C)C)cc1` (centres undefined) [ESMOLOL], the IC50 result in data set [1], in data set [2], in data set [3], in data set [4], in data set [5] and in data set [6] was “Not Active” each time. Also, the IC50 entry in data set [7] is listed as “Not Active”. Besides, the Ki result in data set [3], in data set [4], in data set [6] and in data set [7] was “Not Active” each time.
In the case of `O=C(O)CCNC(=O)c1ccccc1` [BETAMIPRON], the IC50 entry in data set [1], in data set [2], in data set [3], in data set [4], in data set [5] and in data set [6] was “Not Active” throughout. The half-maximal inhibitory concentration (IC50) entry in data set [7] is recorded as “Not Active”. Moreover, the inhibitory constant (Ki) result in data set [3], in data set [4], in data set [6] and in data set [7] was “Not Active” in each case.
With `O=c1cnn([C@@H]2O[C@H](CO)[C@@H](O)[C@H]2O)c(=O)[nH]1` [6-AZAURIDINE], the IC50 entry in data set [1], in data set [2], in data set [3], in data set [4], in data set [5] and in data set [6] was “Not Active” throughout. Further, the 50% inhibitory concentration (IC50) result in data set [7] is “Not Active”. Also, the Ki entry in data set [3], in data set [4], in data set [6] and in data set [7] was “Not Active” throughout.
`C[C@@H]1C[C@H]2[C@@H]3CCC4=CC(=O)C=C[C@]4(C)[C@@]3(F)[C@@H](O)C[C@]2(C)[C@H]1C(=O)CO` [DESOXIMETASONE]: the IC50 entry in data set [1], in data set [2], in data set [3], in data set [4], in data set [5] and in data set [6] was “Not Active” throughout. Also, the IC50 entry in data set [7] was “Not Active”. The inhibition constant Ki entry in data set [3], in data set [4], in data set [6] and in data set [7] was “Not Active” throughout.
`O=c1cc(N2CCOCC2)oc2c(-c3ccccc3)cccc12` [LY-294002]: the IC50 result in data set [1], in data set [2], in data set [3], in data set [4], in data set [5] and in data set [6] was “Not Active” throughout. In addition, the IC50 result in data set [7] is recorded as “Not Active”. The Ki entry in data set [3], in data set [4], in data set [6] and in data set [7] was “Not Active” in each case.
For the molecule `COc1cc(N)c(Cl)cc1C(=O)NC1CCN(CCCOc2ccc(F)cc2)CC1OC` (centres undefined) [CISAPRIDE], the IC50 entry is “Not Active” in data set [1]; “Not Active” in data set [2]; “Not Active” in data set [3]; 177 nM in data set [4] (read-out: IC50); “Not Active” in data set [5]; “Not Active” in data set [6]. In data set [7], the IC50 entry is reported as “Not Active”. Further, the Ki result in data set [3] is “Not Active”; in data set [4] (read-out: Ki), 109 nM; in data set [6], “Not Active”; in data set [7], “Not Active”.
Consider `N=C(N)NC(=O)Cc1c(Cl)cccc1Cl` [GUANFACINE], for which the IC50 result in data set [1], in data set [2], in data set [3], in data set [4], in data set [5] and in data set [6] was “Not Active” each time. In addition, the IC50 entry in data set [7] is “Not Active”. For the same molecule, the inhibition constant Ki result in data set [3], in data set [4], in data set [6] and in data set [7] was “Not Active” in each case.
For `COc1cc2nc(N3CCN(C(=O)c4ccco4)CC3)nc(N)c2cc1OC` [PRAZOSIN], the IC50 result in data set [1], in data set [2], in data set [4], in data set [5], in data set [6] and in data set [7] was “Not Active” in each case. For the same molecule, the Ki result in data set [4], in data set [6] and in data set [7] was “Not Active” in each case.
For `COc1ccc2cc3[n+](cc2c1OC)CCc1cc2c(cc1-3)OCO2.[Cl-]` [BERBERINE CHLORIDE], the IC50 result was “Not Active” in data set [1]; “Not Active” in data set [2]; 95 nM in data set [4] (read-out: IC50); “Not Active” in data set [5]; “Not Active” in data set [6]; “Not Active” in data set [7]. Further, the results for the Ki in data set [4] (read-out: Ki), in data set [6] and in data set [7] were 59 nM, “Not Active” and “Not Active”, respectively.
Take `CC(C)c1cccc(C(C)C)c1O` [PROPOFOL]: the IC50 result in data set [1], in data set [2], in data set [3], in data set [4], in data set [5] and in data set [6] was “Not Active” throughout. The Ki entry in data set [3], in data set [4] and in data set [6] was “Not Active” each time.
